Read-outs that look alike come from different tables or passages of the source.
Test: Ocular biodistribution of PS after topical eye drops in New Zealand white rabbits (HPLC)
Format: in vivo, rabbit
Experimental: Results: The above PS formulation was administered topically as eye drops to the eyes of New Zealand white rabbits. The levels of PS in ocular tissues 1 h and 3 h later were determined by HPLC. The Table below summarizes the findings:
Results: The above PS formulation was administered topically as eye drops to the eyes of New Zealand white rabbits. The levels of PS in ocular tissues at 2 h later were determined by HPLC. The table below summarizes the findings.
Results: PS in this formulation was administered topically to the eyes of New Zealand white rabbits and its biodistribution was determined as above. The Table below summarizes the findings.
Results: PS in this formulation was administered topically as eye drops to the eyes of New Zealand white rabbits. The biodistribution of PS in ocular tissues at 3 h and 6 h was determined by HPLC. The Table below summarizes the findings.
Biodistribution of PS after topical administration: PS formulated in nanoparticles as above was administered topically as eye drops to New Zealand white rabbits. The biodistribution of PS in ocular tissues at the indicated time points post administration was determined by HPLC. The Table below summarizes the findings.
Biodistribution of PS after topical administration: PS in the formulations was administered topically as eye drops to the eyes of New Zealand white rabbits. The levels of PS in ocular tissues at 0.5 h, 1 h and 3 h were determined by HPLC. The Table below summarizes the findings.
To assess the contribution of the foregoing formulations to the PK/biodistribution of PS in the ocular tissues, a solution of PS in pure propylene glycol (PG) was studied. PG is well tolerated by the eye. A 3.5% PS solution (in PG) as eye drops was administered topically to the eyes of New Zealand white rabbits and its 1-hour biodistribution was determined by HPLC. The Table summarizes the findings.

[1] = 0.5 h, topical, 0.4% gellan gum in-situ gel, 2.4-3% PS
[2] = 1 h, topical eye drops, 3.5% PS/16% Vitamin E TPGS/mannitol/boric acid
[3] = 1 h, topical, 0.4% gellan gum in-situ gel, 2.4-3% PS
[4] = 1 h, topical, sodium alginate/Tween 80 in-situ gel, 3% PS
[5] = 2 h, topical, 0.5% gellan gum in-situ gel, 2.4~3% PS
[6] = 3 h, topical eye drops, 3.5% PS/16% Vitamin E TPGS/mannitol/boric acid
[7] = 3 h, topical, 0.4% gellan gum in-situ gel, 2.4-3% PS
[8] = 3 h, topical, Poloxamer 407 in-situ gel, 5.4% PS
[9] = 3 h, topical, sodium alginate/Tween 80 in-situ gel, 3% PS
[10] = 5 h, topical, 0.4% gellan gum in-situ gel, 2.4-3% PS
[11] = 5 h, topical, sodium alginate/Tween 80 in-situ gel, 3% PS
[12] = 8 h, topical, 0.4% gellan gum in-situ gel, 2.4-3% PS

CCOP(=O)(OCC)OCCCCOC(=O)CC1=C(C)/C(=C/c2ccc([S+](C)[O-])cc2)c2ccc(F)cc21 (centres unmarked) [PS, phosphosulindac]
PS in Aqueous humor [1]: 0.6 µM | PS in Conjunctiva [1]: 37.7 µM | PS in Cornea [1]: 24.3 µM | PS in Aqueous humor [2]: 2.3 µM | PS in Choroid [2]: 3.2 µM | PS in Conjunctiva [2]: 9.3 µM | PS in Cornea [2]: 6.9 µM | PS in Iris [2]: 0.7 µM | PS in Lacrimal gland [2]: 0.1 µM | PS in Lens [2]: 1.8 µM | PS in Retina [2]: 2.7 µM | PS in Sclera [2]: 2.3 µM | PS in Vitreous body [2]: 3.6 µM | PS in Aqueous humor [3]: 0.4 µM | PS in Conjunctiva [3]: 20.8 µM | PS in Cornea [3]: 50.8 µM | PS in Aqueous humor [4]: 0.4 µM | PS in Conjunctiva [4]: 4.9 µM | PS in Cornea [4]: 17.8 µM | PS in Aqueous humor [5]: 1.2 µM | PS in Conjunctiva [5]: 24.1 µM | PS in Cornea [5]: 72.0 µM | PS in Aqueous humor [6]: 0.1 µM | PS in Choroid [6]: 0.2 µM | PS in Conjunctiva [6]: 0.5 µM | PS in Cornea [6]: 0.8 µM | PS in Iris [6]: 0.9 µM | PS in Lacrimal gland [6]: 0.5 µM | PS in Lens [6]: 0.1 µM | PS in Retina [6]: 0.2 µM | PS in Sclera [6]: 0.2 µM | PS in Conjunctiva [7]: 0.7 µM | PS in Cornea [7]: 1.5 µM | PS in Choroid [8]: 0.9 µM | PS in Cornea [8]: 45.1 µM | PS in Aqueous humor [9]: 0.3 µM | PS in Conjunctiva [9]: 2.1 µM | PS in Cornea [9]: 5.0 µM | PS in Conjunctiva [10]: 1.1 µM | PS in Cornea [10]: 1.1 µM | PS in Conjunctiva [11]: 2.3 µM | PS in Cornea [11]: 1.0 µM | PS in Conjunctiva [12]: 0.7 µM | PS in Cornea [12]: 1.6 µM | PS in Conjunctiva (8 h, topical, sodium alginate/Tween 80 in-situ gel, 3% PS): 1.3 µM | concentration at 5 h (New Zealand white, rabbit, aqueous humor, topical, 3 % PS, 5 h, topical, sodium alginate/Tween 80 in-situ gel, 3% PS, read-out: PS in Aqueous humor): 0 nM | concentration at 8 h (New Zealand white, rabbit, aqueous humor, topical, 3 % PS, 8 h, topical, sodium alginate/Tween 80 in-situ gel, 3% PS, read-out: PS in Aqueous humor): 0 nM | concentration at 1 h (New Zealand white, rabbit, aqueous humor, topical, 3.5 % PS solution (eye drops), 1 h, topical eye drops, 3.5% PS solution in propylene glycol, read-out: PS in Aqueous humor): 700 nM | concentration at 3 h (New Zealand white, rabbit, aqueous humor, topical, 5.4 % PS, 3 h, topical, Poloxamer 407 in-situ gel, 5.4% PS, read-out: PS in Aqueous humor): 300 nM | concentration at 6 h (New Zealand white, rabbit, aqueous humor, topical, 5.4 % PS, 6 h, topical, Poloxamer 407 in-situ gel, 5.4% PS, read-out: PS in Aqueous humor): 300 nM | concentration at 3 h (New Zealand white, rabbit, aqueous humor, topical, 3 h, topical, 0.4% gellan gum in-situ gel, 2.4-3% PS, read-out: PS in Aqueous humor): 0 nM | concentration at 5 h (New Zealand white, rabbit, aqueous humor, topical, 5 h, topical, 0.4% gellan gum in-situ gel, 2.4-3% PS, read-out: PS in Aqueous humor): 0 nM | concentration at 8 h (New Zealand white, rabbit, aqueous humor, topical, 8 h, topical, 0.4% gellan gum in-situ gel, 2.4-3% PS, read-out: PS in Aqueous humor): 0 nM
